This passage reports IC50 results from patent US12685726B2, “Sulfoximines as inhibitors of NaV1.8” (Gruenenthal GmbH, priority 2022, dated 2026).

The test deals with T1, human NaV 1.8 (Homo sapiens, UniProt Q9Y5Y9).
T1 construct: expressed in transfected cells; host or cells: HEK (recombinant cell line)
In words: Automated whole-cell patch clamp (Qube384) voltage-clamp recordings of sodium currents in HEK-NaV1.8 cell line. In kind it is cell-based. As to conditions: read-out: Potency category (human NaV 1.8 IC50). The procedure, abridged: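 HEK cells expressing NaV1.8 with b3, whole-cell automated voltage clamp at room temperature or 19° C.; CsF-based internal, pH 7.4 external. State-dependent (−120 mV, V1/2 4 s, −10 mV test pulses) and 10/20 Hz 40-pulse protocols; ~12 min compound, vehicle-corrected, IC50 by 4-parameter logistic fit.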

T1 sequence (Q9Y5Y9 whole entry): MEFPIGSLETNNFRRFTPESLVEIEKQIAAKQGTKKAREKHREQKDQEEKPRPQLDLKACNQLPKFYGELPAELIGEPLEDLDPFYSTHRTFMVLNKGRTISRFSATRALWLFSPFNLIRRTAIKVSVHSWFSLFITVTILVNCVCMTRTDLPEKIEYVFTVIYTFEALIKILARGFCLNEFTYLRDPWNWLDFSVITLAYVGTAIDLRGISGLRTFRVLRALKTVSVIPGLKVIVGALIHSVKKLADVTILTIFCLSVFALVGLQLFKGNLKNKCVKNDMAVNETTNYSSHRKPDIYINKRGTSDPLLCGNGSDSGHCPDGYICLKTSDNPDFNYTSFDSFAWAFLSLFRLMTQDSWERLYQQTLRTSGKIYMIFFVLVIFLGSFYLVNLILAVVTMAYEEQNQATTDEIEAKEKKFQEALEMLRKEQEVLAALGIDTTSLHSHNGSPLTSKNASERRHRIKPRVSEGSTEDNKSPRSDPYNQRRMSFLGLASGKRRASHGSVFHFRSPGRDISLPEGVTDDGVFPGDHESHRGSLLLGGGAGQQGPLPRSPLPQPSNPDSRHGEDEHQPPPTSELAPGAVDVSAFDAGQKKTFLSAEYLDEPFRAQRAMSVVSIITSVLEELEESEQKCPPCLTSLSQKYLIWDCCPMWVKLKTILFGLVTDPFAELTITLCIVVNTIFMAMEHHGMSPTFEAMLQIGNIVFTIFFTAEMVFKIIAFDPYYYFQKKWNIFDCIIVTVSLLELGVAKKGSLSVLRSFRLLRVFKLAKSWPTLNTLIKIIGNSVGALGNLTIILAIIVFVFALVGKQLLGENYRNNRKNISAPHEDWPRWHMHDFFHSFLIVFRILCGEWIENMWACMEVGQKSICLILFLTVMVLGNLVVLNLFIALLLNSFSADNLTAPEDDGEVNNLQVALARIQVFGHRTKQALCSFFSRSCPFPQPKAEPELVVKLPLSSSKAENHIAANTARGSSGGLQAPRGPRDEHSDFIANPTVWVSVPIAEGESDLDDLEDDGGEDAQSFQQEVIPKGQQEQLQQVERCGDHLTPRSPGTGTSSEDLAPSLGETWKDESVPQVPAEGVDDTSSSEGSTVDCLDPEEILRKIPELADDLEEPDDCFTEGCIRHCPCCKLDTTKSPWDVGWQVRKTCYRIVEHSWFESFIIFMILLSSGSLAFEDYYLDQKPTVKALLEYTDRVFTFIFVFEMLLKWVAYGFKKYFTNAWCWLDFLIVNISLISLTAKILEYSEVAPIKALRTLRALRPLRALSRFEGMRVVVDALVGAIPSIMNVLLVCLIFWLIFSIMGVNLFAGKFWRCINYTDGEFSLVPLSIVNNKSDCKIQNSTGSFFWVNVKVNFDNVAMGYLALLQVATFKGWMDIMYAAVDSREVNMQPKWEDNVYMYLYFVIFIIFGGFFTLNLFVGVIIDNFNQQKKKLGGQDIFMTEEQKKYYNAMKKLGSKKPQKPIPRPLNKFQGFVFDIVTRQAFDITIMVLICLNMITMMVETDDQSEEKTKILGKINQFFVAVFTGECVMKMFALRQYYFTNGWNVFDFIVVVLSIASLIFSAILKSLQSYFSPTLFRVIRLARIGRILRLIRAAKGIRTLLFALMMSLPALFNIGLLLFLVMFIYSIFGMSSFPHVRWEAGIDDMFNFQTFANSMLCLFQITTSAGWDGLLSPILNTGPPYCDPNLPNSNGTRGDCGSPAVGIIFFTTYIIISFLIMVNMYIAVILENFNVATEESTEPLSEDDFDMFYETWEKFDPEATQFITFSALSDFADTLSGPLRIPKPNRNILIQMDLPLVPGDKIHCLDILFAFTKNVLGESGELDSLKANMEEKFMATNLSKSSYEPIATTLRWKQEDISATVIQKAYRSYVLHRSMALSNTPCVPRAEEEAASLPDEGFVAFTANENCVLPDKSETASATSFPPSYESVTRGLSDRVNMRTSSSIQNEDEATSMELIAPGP

As for `CS(=N)(=O)c1cc(NC(=O)c2c(C(F)(F)F)c(C3CC3)nn2CC2CCC23CNC3)ccn1` (single isomer, unassigned) [Example 153c, 1-((2-Azaspiro[3.3]heptan-5-yl)methyl)-3-cyclopropyl-N-(2-(S-methylsulfonimidoyl)pyridin-4-yl)-4-(trifluoromethyl)-1H-pyrazole-5-carboxamide], the IC50 fell in the range of 1000 to 10000 nM.
On to `CC1(Cn2nc(C3(C(F)(F)F)CC3)c(C(F)(F)F)c2C(=O)Nc2ccnc(S(C)(=N)=O)c2)CC(F)(F)C1` (single isomer, unassigned) [Example 144a, 1-((3,3-Difluoro-1-methylcyclobutyl)methyl)-N-(2-(S-methylsulfonimidoyl)pyridin-4-yl)-4-(trifluoromethyl)-3-(1-(trifluoromethyl)cyclopropyl)-1H-pyrazole-5-carboxamide], for which the IC50 was not above 100 nM.
Turning to `COC12CC(c3nn(CC4(C)CC(F)(F)C4)c(C(=O)Nc4ccnc(S(C)(=N)=O)c4)c3C(F)(F)F)(C1)C2` (stereo not drawn) [Example 122, 1-((3,3-Difluoro-1-methylcyclobutyl)methyl)-3-(3-methoxybicyclo[1.1.1]pentan-1-yl)-N-(2-(S-methylsulfonimidoyl)pyridin-4-yl)-4-(trifluoromethyl)-1H-pyrazole-5-carboxamide], the IC50 was not above 100 nM.
For `Cc1c(C(C)(F)F)nn(CC23CC(C(F)(F)F)(C2)C3)c1C(=O)Nc1ccnc(S(C)(=N)=O)c1` (single isomer, unassigned) [Example 15a, 3-(1,1-difluoroethyl)-4-methyl-N-(2-(S-methylsulfonimidoyl)pyridin-4-yl)-1-((3-(trifluoromethyl)bicyclo[1.1.1]pentan-1-yl)methyl)-1H-pyrazole-5-carboxamide], the 50% inhibitory concentration (IC50) was not above 100 nM.
In the case of `CC1(Cn2nc(C34CC(C3)C4)c(C(F)F)c2C(=O)Nc2ccnc(S(C)(=N)=O)c2)CC(F)(F)C1` (single isomer, unassigned) [Example 137b, 3-(Bicyclo[1.1.1]pentan-1-yl)-1-((3,3-difluoro-1-methylcyclobutyl)methyl)-4-(difluoromethyl)-N-(2-(S-methylsulfonimidoyl)pyridin-4-yl)-1H-pyrazole-5-carboxamide], the half-inhibitory concentration (IC50) was not above 100 nM.
As to `CS(=N)(=O)c1cc(NC(=O)c2c(C(F)(F)F)c(C3CC3)nn2CC23CCC(F)(CC2)C3)ccn1` (single isomer, unassigned) [Example 106b, 3-cyclopropyl-1-((4-fluorobicyclo[2.2.1]heptan-1-yl)methyl)-N-(2-(S-methylsulfonimidoyl)pyridin-4-yl)-4-(trifluoromethyl)-1H-pyrazole-5-carboxamide], the IC50 was not above 100 nM.
With `CS(=N)(=O)c1cc(NC(=O)c2c(C(F)(F)F)c(C3CC3)nn2CC2(F)CC3(CCC3)C2)ccn1` (single isomer, unassigned) [Example 21b, 3-cyclopropyl-1-((2-fluorospiro[3.3]heptan-2-yl)methyl)-N-(2-(S-methylsulfonimidoyl)pyridin-4-yl)-4-(trifluoromethyl)-1H-pyrazole-5-carboxamide], the half-maximal inhibitory concentration (IC50) was not above 100 nM.
As to `CC1(Cn2nc(C3(F)CC3)c(C(F)(F)F)c2C(=O)Nc2cccc(S(C)(=N)=O)c2)CC(F)(F)C1` (single isomer, unassigned) [Example 109b, 1-((3,3-Difluoro-1-methylcyclobutyl)methyl)-3-(1-fluorocyclopropyl)-N-(3-(S-methylsulfonimidoyl)phenyl)-4-(trifluoromethyl)-1H-pyrazole-5-carboxamide], the half-inhibitory concentration (IC50) is not above 100 nM.
In the case of `CS(=N)(=O)c1cc(NC(=O)c2c(C(F)(F)F)c(C3CC3)nn2CC23CC(CC2(F)F)C3)ccn1` (single isomer, unassigned) [Example 103a, 3-cyclopropyl-1-((2,2-difluorobicyclo[2.1.1]hexan-1-yl)methyl)-N-(2-(S-methylsulfonimidoyl)pyridin-4-yl)-4-(trifluoromethyl)-1H-pyrazole-5-carboxamide], the IC50 was not above 100 nM.
